Measured values: US11795200B2, “Nano small peptide and its use in preparation of drugs for treating and preventing fundus vascular diseases” (FUTU Biotech Co., Ltd., priority 2021, dated 2023)
Like-named read-outs stand apart in the source and are kept apart here. Non-standard residues stand in square brackets, D forms with d. Residues, ends and D or L forms follow the SMILES beside them. No end group written: not given here. *: point of attachment. Palmitoyl = CCCCCCCCCCCCCCCC(=O)*

Legend:
[1] = DLS particle size and zeta potential of FH and FG nanoparticles; assay type: physicochemical; details: zeta sizer, 25° C.
Description: First, FG and FH nanoparticle solutions with a concentration of 20 μM were prepared as follows. 0.01 mmol of FG (or FH) was weighed and dissolved in 1 mL of DMSO solution, and then diluted into 5 folds to a concentration of 2 mM, thus obtaining mother solution A. 10 μL of mother solution A was quickly added to 1 mL of water, and the resulting solution was then vortexed for 30 s to obtain a nanoparticle solution. Second, samples were made. 10 ul of FG (or FH) solution was added dropwise onto a copper mesh for 5 min, and the excess solution was removed with filter paper. 10 μL of uranyl acetate stain was added dropwise for 5 min, and the excess stain was removed with filter paper. Washing with 10 μl of deionized water was carried out once. The samples were dried in vacuum overnight. Finally, transmission electron microscopy observations were performed on an HT-7700 transmission electron microscope (Hitachi, Tokyo, Japan). Scale bar was 200 nm.
The particle size and zeta potential of FH and FG nanoparticles were measured with a zeta sizer (Nano ZZ90, Malvern, UK) at 25° C.

[2] = tested on: primary mouse brain microvascular pericytes; experiment: sSema4D-induced pericyte migration (transwell experiment); assay type: cell-based; details: 36 h; for sSema4D-induced pericyte migration: 20 μM, sSema4D 1600 ng/mL
Description: The primary mouse brain microvascular pericytes were starved with 0.5% PM for 4 to 6 h. The pericytes were seeded in the upper layer of a 24-well transwell chamber (8 μm). The medium containing FH (20 μM), FG (20 μM), and Sema4D neutralizing antibody (BMA-12) (2 μg/μL) (the concentration of sSema4D in the medium is 1600 ng/mL) was added to the lower chamber, and an equal volume of DMSO was added as control. The cells were incubated in a 5% CO2 incubator at 37° C. for 36 h. 36 h later, the cells on the bottom of the chamber were fixed with 4% paraformaldehyde and stained with crystal violet, and the pericytes that penetrated to the bottom of the chamber were counted under a microscope.

[3] = tested on: endothelial cells (primary endothelial cells of mouse brain microvessels); experiment: CCK8 cytotoxicity assay; details: 20 μM; 12, 14, and 36 h
sSema4D [4] = biological target: T1, sSema4D (Mus musculus, UniProt O09126); experiment: ELISA of sSema4D in vitreous humor after eye drops; assay type: in vivo; set-up: from tissue; host or cells: vitreous humor of C57 mice; details: eye drops 10 μL of 20 μM, twice daily, 3 days
T1 sequence (O09126 24-733 limits assumed): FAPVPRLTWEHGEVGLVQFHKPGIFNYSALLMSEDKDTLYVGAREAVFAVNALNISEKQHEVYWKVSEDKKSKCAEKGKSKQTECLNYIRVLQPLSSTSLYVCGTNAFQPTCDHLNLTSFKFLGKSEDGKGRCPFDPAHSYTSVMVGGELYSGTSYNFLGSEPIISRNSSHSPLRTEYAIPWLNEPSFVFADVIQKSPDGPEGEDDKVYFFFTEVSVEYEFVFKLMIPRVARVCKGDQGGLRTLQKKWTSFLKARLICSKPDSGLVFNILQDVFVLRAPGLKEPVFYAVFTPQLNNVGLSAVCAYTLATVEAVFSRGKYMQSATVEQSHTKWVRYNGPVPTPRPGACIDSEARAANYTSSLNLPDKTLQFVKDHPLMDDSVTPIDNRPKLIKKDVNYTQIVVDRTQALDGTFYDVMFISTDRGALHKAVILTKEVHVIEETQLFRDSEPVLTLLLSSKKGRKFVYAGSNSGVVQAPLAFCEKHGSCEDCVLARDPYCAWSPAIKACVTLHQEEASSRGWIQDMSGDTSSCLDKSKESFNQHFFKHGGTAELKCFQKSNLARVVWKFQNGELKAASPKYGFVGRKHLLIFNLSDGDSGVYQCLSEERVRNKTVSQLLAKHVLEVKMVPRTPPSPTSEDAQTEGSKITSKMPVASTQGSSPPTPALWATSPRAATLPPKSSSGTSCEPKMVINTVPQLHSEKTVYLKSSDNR
Source text: In this example, 8-week-old C57 male mice were used, with ten data points in each group, and each data point was the average of the experimental results of 5 mice.
The water on the eyeballs was then removed with filter paper to release and collect the vitreous humor. ELISA kit (Shanghai Yuanmu Biotechnology Co., Ltd.) was used to detect the expression of sSema4D protein in vitreous humor.
Control group was instilled with the same volume of PBS solution; vehicle group was instilled the same volume of artificial tears (Systane).

[5] = In vivo imaging of small animals, entry into vitreous humor; details: eye drops (10 μL, 20 μM, three times) and vitreous injection (1 μl, 20 μM)
Description: (§1) 10 μL of FH and FG eye drops (with the concentration of 20 μM, the solvent therein was artificial tears) were instilled on the eyeball surface of mice (8-week-old C57 male mice), once at an interval of 1 h. One hour after the third eye drop, the mice were anesthetized to have cardiac perfusion, the eyeballs of the mice were taken out, the connective tissue on the eye surface was trimmed, and the eyeballs were washed with PBS solution for several times to remove the nano eye drops from the surface of the eyeballs. The eyeball was placed in a small animal imager (at emission wavelength of 535 nm and excitation wavelength of 490 nm) for image acquisition.

sSema4D [6] = biological target: T1, sSema4D; experiment: Reduction of sSema4D concentration in a simple medium system (ELISA); assay type: biochemical; set-up: the free Sema4D protein after enzyme cleavage of Sema4D; purchased R&D Systems; details: for sSema4D concentration: medium with 1600 ng/mL sSema4D, FH, FG 20 μM, BMA-12 2 μg/μL
Description: The nano small peptides FH, FG, DMSO, and Sema4D neutralizing antibody (BMA-12) were added to the medium (the concentration of sSema4D in the medium was 1600 ng/mL) to ensure that the final concentration of FH and FG was 20 μM, and the final concentration of the Sema4D neutralizing antibody (BMA-12) (BMA-12, i.e., anti-Sema4D) was 2 μg/μL, an equal volume of DMSO was then added as a control, and culture plates were set still at 37° C. for 12, 24, 36, and 48 h, and the culture medium was collected, and the expression of Sema4D protein in the supernatant was detected using an ELISA kit (Shanghai Yuanmu Biotechnology Co., Ltd.).

[7] = mouse, in vivo
Description: as §1

charges (zeta potential) [1]	particle diameters [1] [nm]	entry into the vitreous humor of mice [5]	sSema4D concentration (sSema4D [6]; 24 h)	effect on sSema4D concentration, FH compared with FG (sSema4D [6]; within the same action time, 20 μM)	entry into the vitreous humor of mice [7]	Molecule	inhibition of pericyte migration compared with BMA-12 ([2]; 20 μM vs BMA-12 2 μg/μL)	sSema4D-induced pericyte migration [2]	toxic effects on endothelial cells [3]	expression of sSema4D protein in the vitreous humor (sSema4D [4])	sSema4D concentration (sSema4D [6]; 36 h)
+40.4 mV	54.43±2.8	entered the vitreous humor of mice	can reduce the sSema4D concentration	better than that of FG		CCCCCCCCCCCCCCCC(=O)N[C@H](Cc1ccccc1)C(=O)N[C@@H](Cc1ccccc1)C(=O)N[C@H](C(=O)N[C@@H](CC(C)C)C(=O)N[C@@H](CCCCN)C(=O)N[C@@H](CCCCN)C(=O)N[C@@H](CCC(N)=O)C(=O)N[C@@H](CCCCN)C(=O)N[C@@H](CCCNC(=N)N)C(=O)N1CCC[C@H]1C(=O)N[C@@H](CCCNC(=N)N)C(=O)N[C@@H](Cc1c[nH]cn1)C(=O)O)C(C)C [FH] (Palmitoyl-[dF]FVLKKQKRPRH-OH)	more effective in inhibiting pericyte migration than Sema4D neutralizing antibody (BMA-12)	can significantly inhibit the sSema4D-induce pericyte migration	did not cause toxic effects	reduce the expression of sSema4D protein in the vitreous humor	can still reduce the sSema4D concentration
+44.8 mV	57.67±2.6		can reduce the sSema4D concentration		entered the vitreous humor of mice	Palmitoyl-FFVLKKNKAAKG [FG]		can significantly inhibit the sSema4D-induce pericyte migration		reduce the expression of sSema4D protein in the vitreous humor	can still reduce the sSema4D concentration
